According to ChEMBL document CHEMBL1275501, “Plasmid-mediated quinolone resistance pump QepA2 in an Escherichia coli isolate from France” (2008):
Converted amounts (≈) assume the structure as drawn.

Columns and labels:
[1] = test system: Escherichia coli; test: Antimicrobial activity against azide-resistant Escherichia coli J53 by disk diffusion method; type: functional
[2] = test system: Escherichia coli; test: Antimicrobial activity against Escherichia coli BicA expressing blaTEM-1, blaCTX-M-15 and qepA2 gene by disk diffusion method
[3] = test system: Escherichia coli; test: Antimicrobial activity against azide-resistant Escherichia coli J53 harboring pCTX-M carrying blaCTX-M-15 and pQep plasmid carrying qepA2 gene by disk diffusion method; type: functional
[4] = test system: Escherichia coli; test: Antimicrobial activity against azide-resistant Escherichia coli J53 harboring pCTX-M plasmid carrying blaCTX-M-15 gene by disk diffusion method; type: functional
[5] = test system: Escherichia coli; test: Antimicrobial activity against Escherichia coli TOP10 harboring pQep plasmid carrying qepA2 gene by disk diffusion method; type: functional
[6] = test system: Escherichia coli; test: Antimicrobial activity against Escherichia coli TOP10 by disk diffusion method; type: functional
[7] = test system: Escherichia coli; test: Antimicrobial activity against Escherichia coli TOP10 harboring pQep plasmid carrying qepA2 gene by disk diffusion method in presence of beta-lactamase inhibitor clavulanic acid; type: functional
[8] = test system: Escherichia coli; test: Antimicrobial activity against azide-resistant Escherichia coli J53 harboring pCTX-M plasmid carrying blaCTX-M-15 gene by disk diffusion method in presence of beta-lactamase inhibitor clavulanic acid; type: functional
[9] = test system: Escherichia coli; test: Antimicrobial activity against azide-resistant Escherichia coli J53 harboring pCTX-M carrying blaCTX-M-15 and pQep plasmid carrying qepA2 gene by disk diffusion method in presence of beta-lactamase inhibitor clavulanic acid; type: functional
[10] = test system: Escherichia coli; test: Antimicrobial activity against Escherichia coli TOP10 by disk diffusion method in presence of beta-lactamase inhibitor clavulanic acid; type: functional
[11] = test system: Escherichia coli; test: Antimicrobial activity against Escherichia coli BicA expressing blaTEM-1, blaCTX-M-15 and qepA2 gene by disk diffusion method in presence of beta-lactamase inhibitor clavulanic acid; type: functional
[12] = test system: Escherichia coli; test: Antimicrobial activity against azide-resistant Escherichia coli J53 by disk diffusion method in presence of beta-lactamase inhibitor clavulanic acid; type: functional

Compound | MIC [1] [µg/mL] | MIC [2] [µg/mL] | MIC [3] [µg/mL] | MIC [4] [µg/mL] | MIC [5] [µg/mL] | MIC [6] [µg/mL] | MIC [7] [µg/mL] | MIC [8] [µg/mL] | MIC [9] [µg/mL] | MIC [10] [µg/mL] | MIC [11] [µg/mL] | MIC [12] [µg/mL]
CO/N=C(\C(=O)N[C@@H]1C(=O)N2C(C(=O)[O-])=C(C[N+]3(C)CCCC3)CS[C@H]12)c1csc(N)n1 | 0.01 (≈ 0.0208 µM) | > 32 | 16 (≈ 33.3 µM) | 16 (≈ 33.3 µM) | 0.12 (≈ 0.25 µM) |  |  |  |  |  |  | 
NCC[C@H](O)C(=O)N[C@@H]1C[C@H](N)[C@@H](O[C@H]2O[C@H](CN)[C@@H](O)[C@H](O)[C@H]2O)[C@H](O)[C@H]1O[C@H]1O[C@H](CO)[C@@H](O)[C@H](N)[C@H]1O [AMIKACIN] | 1 (≈ 1.71 µM) | 2 (≈ 3.42 µM) | 1 (≈ 1.71 µM) | 1 (≈ 1.71 µM) | 1 (≈ 1.71 µM) | 1 (≈ 1.71 µM) |  |  |  |  |  | 
CC1(C)S[C@@H]2[C@H](NC(=O)[C@H](N)c3ccc(O)cc3)C(=O)N2[C@H]1C(=O)O [AMOXICILLIN] | 4 (≈ 10.9 µM) | > 256 | > 256 | > 256 | > 256 | 4 (≈ 10.9 µM) | 16 | 16 | 16 | 4 | 16 | 4
C[C@H]1[C@H](NC(=O)/C(=N\OC(C)(C)C(=O)O)c2csc(N)n2)C(=O)N1S(=O)(=O)O [AZTREONAM] |  | > 32 | 16 (≈ 36.7 µM) | 16 (≈ 36.7 µM) |  |  |  |  |  |  |  | 
CO/N=C(\C(=O)N[C@@H]1C(=O)N2C(C(=O)O)=C(COC(C)=O)CS[C@H]12)c1csc(N)n1 [CEFOTAXIME] | 0.06 (≈ 0.132 µM) | > 32 | > 32 | > 32 | 0.06 (≈ 0.132 µM) | 0.06 (≈ 0.132 µM) |  |  |  |  |  | 
CC(C)(O/N=C(\C(=O)N[C@@H]1C(=O)N2C(C(=O)[O-])=C(C[n+]3ccccc3)CS[C@H]12)c1csc(N)n1)C(=O)O [CEFTAZIDIME] | 0.12 (≈ 0.22 µM) | > 32 | 16 (≈ 29.3 µM) | 16 (≈ 29.3 µM) | 0.12 (≈ 0.22 µM) | 0.06 (≈ 0.11 µM) |  |  |  |  |  | 
CC(=O)OCC1=C(C(=O)O)N2C(=O)[C@@H](NC(=O)Cc3cccs3)[C@H]2SC1 [CEPHALOTHIN] | 8 (≈ 20.2 µM) | > 256 | > 256 | > 256 | 8 (≈ 20.2 µM) | 4 (≈ 10.1 µM) |  |  |  |  |  | 
O=C(N[C@H](CO)[C@H](O)c1ccc([N+](=O)[O-])cc1)C(Cl)Cl [CHLORAMPHENICOL] | 8 (≈ 24.8 µM) | > 256 | > 256 | 8 (≈ 24.8 µM) | > 256 | 4 (≈ 12.4 µM) |  |  |  |  |  | 
O=C(O)c1cn(C2CC2)c2cc(N3CCNCC3)c(F)cc2c1=O [CIPROFLOXACIN] |  | > 32 |  |  |  |  |  |  |  |  |  | 
CCN1CCN(c2cc3c(cc2F)c(=O)c(C(=O)O)cn3C2CC2)CC1 [ENROFLOXACIN] | 0.03 (≈ 0.0835 µM) | > 32 | 0.06 (≈ 0.167 µM) | 0.06 (≈ 0.167 µM) | 0.008 (≈ 0.0223 µM) | 0.003 (≈ 0.00835 µM) |  |  |  |  |  | 
COc1c(N2CCNC(C)C2)c(F)cc2c(=O)c(C(=O)O)cn(C3CC3)c12 (configuration not stated) [GATIFLOXACIN] | 0.01 (≈ 0.0266 µM) | > 32 | 0.12 (≈ 0.32 µM) | 0.06 (≈ 0.16 µM) | 0.01 (≈ 0.0266 µM) | 0.003 (≈ 0.00799 µM) |  |  |  |  |  | 
C[C@@H](O)[C@H]1C(=O)N2C(C(=O)O)=C(SCCNC=N)C[C@H]12 [IMIPENEM ANHYDROUS] | 0.06 (≈ 0.2 µM) | 0.5 (≈ 1.67 µM) | 0.25 (≈ 0.835 µM) | 0.25 (≈ 0.835 µM) |  |  |  |  |  |  |  | 
C[C@H]1COc2c(N3CCN(C)CC3)c(F)cc3c(=O)c(C(=O)O)cn1c23.C[C@H]1COc2c(N3CCN(C)CC3)c(F)cc3c(=O)c(C(=O)O)cn1c23.O [LEVOFLOXACIN] |  | > 32 |  |  |  |  |  |  |  |  |  | 
COc1c(N2C[C@@H]3CCCN[C@@H]3C2)c(F)cc2c(=O)c(C(=O)O)cn(C3CC3)c12 [MOXIFLOXACIN] |  | > 32 | 0.12 (≈ 0.299 µM) |  | 0.01 (≈ 0.0249 µM) | 0.004 (≈ 0.00996 µM) |  |  |  |  |  | 
CCn1cc(C(=O)O)c(=O)c2ccc(C)nc21 [NALIDIXIC ACID] | 4 (≈ 17.2 µM) | > 256 | 4 (≈ 17.2 µM) | 4 (≈ 17.2 µM) | 1.5 (≈ 6.46 µM) | 1 (≈ 4.31 µM) |  |  |  |  |  | 
CCN[C@@H]1C[C@H](N)[C@@H](O[C@H]2OC(CN)=CC[C@H]2N)[C@H](O)[C@H]1O[C@H]1OC[C@](C)(O)[C@H](NC)[C@H]1O [NETILMICIN] | 0.12 (≈ 0.252 µM) | 0.5 (≈ 1.05 µM) | 0.12 (≈ 0.252 µM) | 0.12 (≈ 0.252 µM) | 0.25 (≈ 0.526 µM) | 0.25 (≈ 0.526 µM) |  |  |  |  |  | 
CCn1cc(C(=O)O)c(=O)c2cc(F)c(N3CCNCC3)cc21 [NORFLOXACIN] | 0.06 (≈ 0.188 µM) | > 256 | 1 (≈ 3.13 µM) | 0.06 (≈ 0.188 µM) | 0.5 (≈ 1.57 µM) | 0.03 (≈ 0.0939 µM) |  |  |  |  |  | 
CC1COc2c(N3CCN(C)CC3)c(F)cc3c(=O)c(C(=O)O)cn1c23 (configuration not stated) [OFLOXACIN] |  | > 32 |  |  |  |  |  |  |  |  |  | 
CCn1cc(C(=O)O)c(=O)c2cc(F)c(N3CCN(C)CC3)cc21 [PEFLOXACIN] | 0.06 (≈ 0.18 µM) | > 32 | 0.06 (≈ 0.18 µM) | 0.06 (≈ 0.18 µM) |  | 0.03 (≈ 0.09 µM) |  |  |  |  |  | 
CO[C@H]1/C=C/O[C@@]2(C)Oc3c(C)c(O)c4c(O)c(c(/C=N/N5CCN(C)CC5)c(O)c4c3C2=O)NC(=O)/C(C)=C\C=C\[C@H](C)[C@H](O)[C@@H](C)[C@@H](O)[C@@H](C)[C@H](OC(C)=O)[C@@H]1C [RIFAMPIN] | 8 (≈ 9.72 µM) | 16 (≈ 19.4 µM) | 8 (≈ 9.72 µM) | 8 (≈ 9.72 µM) | 16 (≈ 19.4 µM) | 16 (≈ 19.4 µM) |  |  |  |  |  | 
Cc1cc(NS(=O)(=O)c2ccc(N)cc2)no1 [SULFAMETHOXAZOLE] | 16 (≈ 63.2 µM) | > 256 | > 256 | 16 (≈ 63.2 µM) | > 256 | 16 (≈ 63.2 µM) |  |  |  |  |  | 
CN(C)[C@@H]1C(O)=C(C(N)=O)C(=O)[C@@]2(O)C(O)=C3C(=O)c4c(O)cccc4[C@@](C)(O)[C@H]3C[C@@H]12 [TETRACYCLINE] | 2 (≈ 4.5 µM) | > 256 | 2 (≈ 4.5 µM) | 2 (≈ 4.5 µM) | > 256 | 2 (≈ 4.5 µM) |  |  |  |  |  | 
CC1(C)S[C@@H]2[C@H](NC(=O)[C@H](C(=O)O)c3ccsc3)C(=O)N2[C@H]1C(=O)O [TICARCILLIN] | 4 (≈ 10.4 µM) | > 256 | > 256 | > 256 | > 256 | 4 (≈ 10.4 µM) |  |  |  |  |  | 
NC[C@H]1O[C@H](O[C@H]2[C@H](O)[C@@H](O[C@H]3O[C@H](CO)[C@@H](O)[C@H](N)[C@H]3O)[C@H](N)C[C@@H]2N)[C@H](N)C[C@@H]1O [TOBRAMYCIN] | 0.12 (≈ 0.257 µM) | 0.5 (≈ 1.07 µM) | 0.25 (≈ 0.535 µM) | 0.25 (≈ 0.535 µM) | 0.5 (≈ 1.07 µM) | 0.5 (≈ 1.07 µM) |  |  |  |  |  | 
COc1cc(Cc2cnc(N)nc2N)cc(OC)c1OC [TRIMETHOPRIM] | 0.25 (≈ 0.861 µM) | > 256 | > 256 | 0.25 (≈ 0.861 µM) | > 256 | 0.12 (≈ 0.413 µM) |  |  |  |  |  | 
GENTAMICIN | 0.12 |  | 0.12 | 0.12 | 0.25 | 0.25 |  |  |  |  |  | 
